Measured values as given in the Kinase Knowledgebase extract (Sharma et al. 2016).
Values joined by “and” are separate entries in the source; they are usually repeats but may differ in a detail not shown here. Identical values can stand only once.

target: MAPK14 (human) (UniProt Q16539); test: Inhibition of MAPK14 Kinase Activity
Sequence (Q16539 whole entry, looked up): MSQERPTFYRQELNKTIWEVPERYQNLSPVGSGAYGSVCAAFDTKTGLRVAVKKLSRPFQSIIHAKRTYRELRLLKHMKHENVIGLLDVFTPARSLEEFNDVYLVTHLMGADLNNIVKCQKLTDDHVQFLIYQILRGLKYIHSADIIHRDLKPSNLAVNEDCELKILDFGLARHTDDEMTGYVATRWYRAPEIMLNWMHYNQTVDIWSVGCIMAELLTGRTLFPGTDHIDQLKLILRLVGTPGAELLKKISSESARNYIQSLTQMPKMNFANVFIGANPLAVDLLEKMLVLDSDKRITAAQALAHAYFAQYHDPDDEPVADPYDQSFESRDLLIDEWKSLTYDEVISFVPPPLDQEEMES

IC50	Ki	SMILES
129 nM	62.1 nM	CCNC(=O)NCc1cc(F)ccc1COc1nc(C)n(C(C)C)c(=O)c1Br
87.9 nM	41.4 nM	CC(=O)N1CCC(Nc2nc(OCc3ccc(F)cc3F)c(Br)c(=O)n2C(C)C)CC1
112 nM	59.1 nM	CC(C)n1c(-c2ccccc2)nc(OCc2ccc(F)cc2F)c(Br)c1=O
102 nM	48 nM	CC(C)n1c(NCC(N)=O)nc(OCc2ccc(F)cc2F)c(Cl)c1=O
13 nM	6.62 nM	CC(=O)NCCCNc1nc(OCc2ccc(F)cc2F)c(Br)c(=O)n1C(C)C
29.9 nM	13.7 nM	CC(C)n1c(NCc2ccc(F)cc2)nc(OCc2ccc(F)cc2F)c(Br)c1=O
5 nM	2.09 nM	CC(C)n1c(NCCCNC(N)=O)nc(OCc2ccc(F)cc2F)c(Br)c1=O
221 nM	105 nM	CC(C)n1c(NCC(=O)NCCO)nc(OCc2ccc(F)cc2F)c(Br)c1=O
372 nM	238 nM	CC(C)n1c(N2CC[C@@H](NC(=O)CO)C2)nc(OCc2ccc(F)cc2F)c(Cl)c1=O
31.7 nM	16.6 nM	CC(C)n1c(NCC(C)(C)O)nc(OCc2ccc(F)cc2F)c(Br)c1=O
608 nM	378 nM	CC(C)n1c(-c2cccc(C(N)=O)c2)nc(OCc2ccc(F)cc2F)c(Br)c1=O
17.2 nM	8.14 nM	CC(C)n1c(NCCNC(=O)C(C)(C)O)nc(OCc2ccc(F)cc2F)c(Br)c1=O
21.2 nM	12.4 nM	CC(C)n1c(OCCNC(N)=O)nc(OCc2ccc(F)cc2F)c(Cl)c1=O
181 nM	90.5 nM	CC(C)n1c(CCCCO)nc(OCc2ccc(F)cc2F)c(Cl)c1=O
605 nM	297 nM	CC(C)n1c(N2CC[C@@H](O)C2)nc(OCc2ccc(F)cc2F)c(Br)c1=O
296 nM	148 nM	CC(C)n1cnc(OCc2ccc(F)cc2F)c(Cl)c1=O
2040 nM	976 nM	CC(C)n1c(CCC(N)=O)nc(OCc2ccc(F)cc2F)c(Cl)c1=O
19.6 nM	10.1 nM	CC(C)n1c(NCCNC(N)=O)nc(OCc2ccc(F)cc2F)c(Cl)c1=O
786 nM	372 nM	Cc1nc(OCc2ccc(F)cc2CNC(=O)NC2CCCCC2)c(Br)c(=O)n1C(C)C
14.2 nM	6.58 nM	CC(C)n1c(NCCNC(=O)CO)nc(OCc2ccc(F)cc2F)c(Br)c1=O
164 nM	79.9 nM	C=CCCc1nc(OCc2ccc(F)cc2F)c(Cl)c(=O)n1C(C)C

IC50	Ki	SMILES
304 nM	166 nM	CC(C)n1c(N2CCC(O)CC2)nc(OCc2ccc(F)cc2F)c(Br)c1=O
12.8 nM and 14.2 nM	6.86 nM and 6.37 nM	CC(C)n1c(NCCC(N)=O)nc(OCc2ccc(F)cc2F)c(Br)c1=O
239 nM	114 nM	CC(C)n1c(CCCCO)nc(OCc2ccc(F)cc2F)c(Br)c1=O
23.8 nM	12.7 nM	CC(C)n1c(NCCCNC(=O)C(C)(C)O)nc(OCc2ccc(F)cc2F)c(Br)c1=O
1220 nM	756 nM	CC(C)n1c(N2CC[C@@H](NC(=O)OCc3ccccn3)C2)nc(OCc2ccc(F)cc2F)c(Br)c1=O
615 nM	343 nM	CC(C)n1c(N2CC[C@@H](NCCO)C2)nc(OCc2ccc(F)cc2F)c(Br)c1=O
594 nM	310 nM	CC(C)n1c(CCCC(=O)NC[C@@H](C)O)nc(OCc2ccc(F)cc2F)c(Cl)c1=O
249 nM	123 nM	CNC(=O)NCCOc1nc(OCc2ccc(F)cc2F)c(Cl)c(=O)n1C(C)C
110 nM	60.6 nM	CC(C)n1c(-c2ccc(C(N)=O)cc2)nc(OCc2ccc(F)cc2F)c(Br)c1=O
612 nM	315 nM	CC(C)n1c(CCCC(=O)NCCO)nc(OCc2ccc(F)cc2F)c(Cl)c1=O
2430 nM	1160 nM	CNC(=O)CCc1nc(OCc2ccc(F)cc2F)c(Cl)c(=O)n1C(C)C
1380 nM	675 nM	CC(=O)NCc1nc(OCc2ccc(F)cc2F)c(Br)c(=O)n1C(C)C
391 nM	181 nM	CC(C)n1c(CCCC(N)=O)nc(OCc2ccc(F)cc2F)c(Br)c1=O
7.2 nM	3.32 nM	CC(C)n1c(NCCCNS(C)(=O)=O)nc(OCc2ccc(F)cc2F)c(Br)c1=O
131 nM	66.1 nM	CC(C)n1c(NCCC(C)(C)C)nc(OCc2ccc(F)cc2F)c(Br)c1=O
251 nM	104 nM	CC(C)n1c(N2CCN(CC(N)=O)CC2)nc(OCc2ccc(F)cc2F)c(Br)c1=O
18.3 nM	9.05 nM	CC(C)n1c(NC[C@H](O)CO)nc(OCc2ccc(F)cc2F)c(Br)c1=O
497 nM	247 nM	CC(C)n1c(CCCC(=O)O)nc(OCc2ccc(F)cc2F)c(Cl)c1=O
334 nM	159 nM	CC(=O)NCCCCc1nc(OCc2ccc(F)cc2F)c(Cl)c(=O)n1C(C)C
53 nM	28.3 nM	CC(C)n1cnc(OCc2ccc(F)cc2F)c(Br)c1=O
26.3 nM	15.5 nM	CC(C)n1c(OCCNS(C)(=O)=O)nc(OCc2ccc(F)cc2F)c(Cl)c1=O

IC50	Ki	SMILES
380 nM	174 nM	CCNC(=O)NCc1cc(F)ccc1COc1nc(C)n(C(C)C)c(=O)c1Cl
29.8 nM	15.7 nM	CC(C)n1c(N2CCC[C@@H]2CO)nc(OCc2ccc(F)cc2F)c(Br)c1=O
484 nM	310 nM	CC(C)n1c(N2CC[C@@H](NC(=O)C(C)(C)O)C2)nc(OCc2ccc(F)cc2F)c(Cl)c1=O
158 nM	81 nM	CC(C)n1c(N2CCN(C(=O)CN)CC2)nc(OCc2ccc(F)cc2F)c(Br)c1=O
813 nM	522 nM	CC(C)n1c(N2CC[C@H](NC(=O)CO)C2)nc(OCc2ccc(F)cc2F)c(Cl)c1=O
17.3 nM	8.82 nM	CC(C)n1c(NCCCC(N)=O)nc(OCc2ccc(F)cc2F)c(Br)c1=O
954 nM	532 nM	Cn1c(NCC(N)=O)nc(OCc2ccc(F)cc2F)c(Br)c1=O
392 nM	202 nM	CC(C)n1c(CCCO)nc(OCc2ccc(F)cc2F)c(Cl)c1=O
330 nM	157 nM	CC(C)n1c(OCCCC(=O)NCCO)nc(OCc2ccc(F)cc2F)c(Cl)c1=O
215 nM	102 nM	CC(C)n1c(NCC(=O)N2CCCC2)nc(OCc2ccc(F)cc2F)c(Br)c1=O
139 nM	68.5 nM	CC(C)n1c(OCCCCO)nc(OCc2ccc(F)cc2F)c(Cl)c1=O
490 nM	252 nM	CNC(=O)CCCc1nc(OCc2ccc(F)cc2F)c(Cl)c(=O)n1C(C)C
1.7 nM	0.205 nM	CC(C)n1c(NCCNS(C)(=O)=O)nc(OCc2ccc(F)cc2F)c(Br)c1=O
334 nM	140 nM	CC(C)n1c(OCCN)nc(OCc2ccc(F)cc2F)c(Br)c1=O
230 nM	119 nM	CSc1cc(OCc2ccc(F)cc2F)c(Br)c(=O)n1C(C)C
150 nM	62.2 nM	CC(C)n1c(N2CCC(N)C2)nc(OCc2ccc(F)cc2F)c(Br)c1=O (stereo not drawn)
119 nM	61.6 nM	CC(C)n1c(N2CCCC(C(N)=O)C2)nc(OCc2ccc(F)cc2F)c(Br)c1=O (stereo not drawn)
2330 nM	1110 nM	CC(C)n1c(CCC(=O)O)nc(OCc2ccc(F)cc2F)c(Cl)c1=O
578 nM	371 nM	CC(=O)N[C@@H]1CCN(c2nc(OCc3ccc(F)cc3F)c(Cl)c(=O)n2C(C)C)C1
557 nM	255 nM	CNC(=O)CCCc1nc(OCc2ccc(F)cc2F)c(Br)c(=O)n1C(C)C
600 nM	278 nM	CC(C)n1c(CCCC(=O)NCCO)nc(OCc2ccc(F)cc2F)c(Br)c1=O

IC50	Ki	SMILES
155 nM	73.4 nM	CC(C)n1c(OCCCC(N)=O)nc(OCc2ccc(F)cc2F)c(Cl)c1=O
143 nM	78.1 nM	CC(C)n1c(NCCN)nc(OCc2ccc(F)cc2F)c(Br)c1=O
69.6 nM	36.3 nM	CC(C)n1c(N2CC[C@@H](N)C2)nc(OCc2ccc(F)cc2F)c(Br)c1=O
328 nM	181 nM	CC(C)n1c(-c2ccc(C(N)=O)cc2)nc(OCc2ccc(F)cc2F)c(Cl)c1=O
2.6 nM	0.713 nM	CC(C)n1c(OCCNC(N)=O)nc(OCc2ccc(F)cc2F)c(Br)c1=O
256 nM	133 nM	C=CCc1nc(OCc2ccc(F)cc2F)c(Cl)c(=O)n1C(C)C
22.3 nM	10.3 nM	CC(C)n1c(NCCNS(C)(=O)=O)nc(OCc2ccc(F)cc2F)c(Cl)c1=O
229 nM	109 nM	CC(C)n1c(OCCCC(=O)O)nc(OCc2ccc(F)cc2F)c(Cl)c1=O
270 nM	132 nM	CC(C)n1c(OCC(N)=O)nc(OCc2ccc(F)cc2F)c(Br)c1=O
810 nM	476 nM	CC(C)n1c(N2CC[C@@H](NC(=O)OCc3cccnc3)C2)nc(OCc2ccc(F)cc2F)c(Br)c1=O
4.6 nM	1.73 nM	CC(C)n1c(N[C@@H](C)C(N)=O)nc(OCc2ccc(F)cc2F)c(Br)c1=O
1680 nM	774 nM	CC(C)n1c(N(C)CC(N)=O)nc(OCc2ccc(F)cc2F)c(Cl)c1=O
131 nM	71.6 nM	CCN[C@@H]1CCN(c2nc(OCc3ccc(F)cc3F)c(Br)c(=O)n2C(C)C)C1
217 nM	118 nM	CC(C)n1c(N2CCC(NC(=O)CN)C2)nc(OCc2ccc(F)cc2F)c(Br)c1=O (stereo not drawn)
59.4 nM	28.5 nM	CC(C)n1c(CNS(C)(=O)=O)nc(OCc2ccc(F)cc2F)c(Br)c1=O
28.1 nM	14.7 nM	CC(=O)NCCNc1nc(OCc2ccc(F)cc2F)c(Cl)c(=O)n1C(C)C
23.8 nM	12.3 nM	CC(C)n1c(N2CCC[C@H]2C(N)=O)nc(OCc2ccc(F)cc2F)c(Br)c1=O
80.4 nM	49.3 nM	CC(=O)NCCOc1nc(OCc2ccc(F)cc2F)c(Cl)c(=O)n1C(C)C
818 nM	435 nM	CC(C)n1c(N2CC[C@H](N)C2)nc(OCc2ccc(F)cc2F)c(Br)c1=O
3180 nM	1690 nM	CC(C)n1c(-c2ccccc2)nc(OCc2ccc(F)cc2F)cc1=O
12.5 nM	5.95 nM	CC(C)n1c(NCCCNC(=O)CO)nc(OCc2ccc(F)cc2F)c(Br)c1=O
